Results published in US10519162B2, “6,7-dihydropyrazolo[1,5-α]pyrazin-4(5H)-one compounds and their use as negative allosteric modulators of mGluR2 receptors” (Janssen Pharmaceutica NV, priority 2014, dated 2019).

Experiments:
human mGlu2 receptor = biological target: T1, human mGlu2 receptor (Homo sapiens, UniProt Q14416); experiment: [35S]GTPγS binding assay (mGluR2 negative allosteric modulation, glutamate ~EC80 60 μM); assay type: biochemical; conditions: for Emax: read-out: GTPγS-hmGluR2 anGT Emax; for IC50: membranes from CHO cells transfected with human mGlu2 receptor, glutamate ~EC80 (60 μM), pIC50 = −log IC50 (M), read-out: GTPγS-hmGluR2 anGT pIC50 (converted)
T1 construct: expressed in transfected cells; host or cells: CHO cells
Procedure: 1) [^35S]GTPγS Binding Assay
[^35S]GTPγS Binding Assay
Total reaction volume was 200 μl. […] Membrane-bound radioactivity was counted in a Topcount.

[1] = maximal % inhibition relative to the control glutamate response (EC80 glutamate)

T1 sequence (Q14416 19-872): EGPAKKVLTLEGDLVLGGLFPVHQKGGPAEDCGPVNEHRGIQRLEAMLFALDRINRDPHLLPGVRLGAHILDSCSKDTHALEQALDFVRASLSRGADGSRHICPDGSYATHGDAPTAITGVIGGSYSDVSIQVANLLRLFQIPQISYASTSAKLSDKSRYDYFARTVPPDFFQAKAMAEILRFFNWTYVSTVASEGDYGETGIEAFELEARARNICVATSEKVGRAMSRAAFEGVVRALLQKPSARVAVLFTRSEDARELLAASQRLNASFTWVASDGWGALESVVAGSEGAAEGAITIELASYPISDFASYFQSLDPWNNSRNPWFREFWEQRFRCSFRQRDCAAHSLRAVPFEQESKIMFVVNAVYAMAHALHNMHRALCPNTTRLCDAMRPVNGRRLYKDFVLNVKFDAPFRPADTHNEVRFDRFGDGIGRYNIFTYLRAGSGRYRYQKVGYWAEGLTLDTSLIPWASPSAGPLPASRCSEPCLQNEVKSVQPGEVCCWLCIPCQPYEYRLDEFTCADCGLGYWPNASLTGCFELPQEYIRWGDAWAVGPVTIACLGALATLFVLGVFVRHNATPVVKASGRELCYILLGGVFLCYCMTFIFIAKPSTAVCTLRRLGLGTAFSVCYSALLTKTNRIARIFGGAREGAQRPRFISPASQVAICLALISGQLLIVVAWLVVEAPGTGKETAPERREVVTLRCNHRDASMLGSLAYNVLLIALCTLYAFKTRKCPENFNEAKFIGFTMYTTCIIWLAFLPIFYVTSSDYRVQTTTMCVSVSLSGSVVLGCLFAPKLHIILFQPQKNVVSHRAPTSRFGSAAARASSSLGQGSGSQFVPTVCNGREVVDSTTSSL

Emax (human mGlu2 receptor; [1]) [%]	IC50 (human mGlu2 receptor) [M]	melting point [°C]	GTPγS-hmGluR2 anGT Emax (human mGlu2 receptor; [1]) [%]	SMILES
114	7.24e-09	185.29	–	C[C@H]1CN(c2ccc(C(F)(F)F)cc2)C(=O)c2c(NC(=O)c3cncc(F)c3)cnn21 [Co. No. 31]
117	7.59e-09	250.03	–	COc1nc(N2C[C@H](C)n3ncc(NC(=O)c4ccc(N)nc4)c3C2=O)ccc1C(F)(F)F [Co. No. 33]
116	9.12e-09	185.41	–	COc1ccc(F)c(C(=O)Nc2cnn3c2C(=O)N(c2ccc(C(F)(F)F)cc2)C[C@@H]3C)c1 [Co. No. 37]
–	–	133.34	113	C[C@H]1CN(c2ccc(C(F)F)c(Cl)c2)C(=O)c2c(NC(=O)c3ccc(N)nc3)cnn21 [Co. No. 40]
105	1.1e-08	127.02	–	COc1ccc(C(=O)Nc2cnn3c2C(=O)N(c2ccc(C(F)(F)F)cc2)C[C@@H]3C)cn1 [Co. No. 42]
114	1.12e-08	213.83	–	COc1ncccc1C(=O)Nc1cnn2c1C(=O)N(c1ccc(C(F)(F)F)cc1)C[C@@H]2C [Co. No. 43]
115	1.12e-08	214.58	–	COc1ccc(C(=O)Nc2cnn3c2C(=O)N(c2ccc(C(F)(F)F)cc2)C[C@@H]3C)c(F)c1 [Co. No. 44]
104	1.26e-08	237.65	–	C[C@H]1CN(c2ccc(C(F)(F)F)cc2)C(=O)c2c(NC(=O)c3ccc(Cl)cn3)cnn21 [Co. No. 46]
101	1.29e-08	128.68	–	COc1cc(C(=O)Nc2cnn3c2C(=O)N(c2ccc(C(F)(F)F)cc2)C[C@@H]3C)ccn1 [Co. No. 47]
108	1.32e-08	221.22	–	C[C@H]1CN(c2ccc(C(F)(F)F)cc2)C(=O)c2c(NC(=O)c3ccc(F)cn3)cnn21 [Co. No. 48]
101	1.32e-08	119.36	–	C[C@H]1CN(c2ccc(C(F)(F)F)cc2)C(=O)c2c(NC(=O)c3ccc(F)cc3)cnn21 [Co. No. 49]
104	1.38e-08	225.63	–	C[C@H]1CN(c2ccc(C(F)(F)F)cc2)C(=O)c2c(NC(=O)c3ccnc(N)c3)cnn21 [Co. No. 50]
113	1.45e-08	140.98	–	COc1cc(C(=O)Nc2cnn3c2C(=O)N(c2ccc(C(F)(F)F)cc2)C[C@@H]3C)ccc1F [Co. No. 51]
104	1.78e-08	198.98	–	Cc1ccc(C(=O)Nc2cnn3c2C(=O)N(c2ccc(C(F)(F)F)cc2)C[C@@H]3C)cc1 [Co. No. 53]
104	1.78e-08	175.17	–	Cc1ccc(C(=O)Nc2cnn3c2C(=O)N(c2ccc(C(F)(F)F)cc2)C[C@@H]3C)cn1 [Co. No. 54]
105	2e-08	145.26	–	C[C@H]1CN(c2ccc(C(F)(F)F)cc2)C(=O)c2c(NC(=O)c3ccncc3)cnn21 [Co. No. 55]
107	2.04e-08	160.66	–	COc1cccc(C(=O)Nc2cnn3c2C(=O)N(c2ccc(C(F)(F)F)c(OC)n2)C[C@@H]3C)c1 [Co. No. 56]
103	2.04e-08	292.16	–	Cc1cccnc1C(=O)Nc1cnn2c1C(=O)N(c1ccc(C(F)(F)F)cc1)C[C@@H]2C [Co. No. 57]
101	2.19e-08	240.77	–	COc1cc(F)ccc1C(=O)Nc1cnn2c1C(=O)N(c1ccc(C(F)(F)F)cc1)C[C@@H]2C [Co. No. 58]
110	2.24e-08	205.32	–	COc1cccc(C(=O)Nc2cnn3c2C(=O)N(c2ccc(C(F)(F)F)cc2)C[C@@H]3C)c1F [Co. No. 59]
111	2.45e-08	227.69	–	COc1ccnc(C(=O)Nc2cnn3c2C(=O)N(c2ccc(C(F)(F)F)cc2)C[C@@H]3C)c1 [Co. No. 60]
